From patent US20150104868A1, “Methods of Maintaining and Improving Biological Cell Function and Activity” (GARGILL INCORPORATED, priority 2012, published 2015)

What was measured:
HUVEC cells [1] = assay: Oxidative damage: protein carbonyls in HUVEC; assay type: cell-based, human; settings: HG 30 mM glucose 24 h, with or without 5 mM ERT/MAN
Description: The prepared cells were seeded in 6 well plates and T75 flasks and grown until 80% confluence. The medium was removed, and the cells were washed with Hank's Balanced Salt Solution (HBSS). […] The vehicle solution is the solvent for the test compounds, in this case being the medium without supplements. […] The cells described above were also incubated for 24 hours with a 7 mM, normal glucose (NG) solution or in some instances, with a 15 mM, intermediary glucose (IG) solution. See, for example, FIG. 6. Subsequently, the cells were incubated for 24 hours. The same protocol was used for incubation with Nε-(carboxymethyl)lysine (CML, final concentration 1 micromolar) and 1,3-morpholino sidnonimine (SIN-1, final concentration 0.5 mM). […] Hyperglycemia is strongly associated with oxidative stress, an imbalance between the formation of reactive oxygen species and the present antioxidants. Excess reactive oxygen species react with critical cellular targets, viz. membrane lipids, proteins and (deoxy)ribonucleic acids. […] Accordingly, one of the targeted assays included studying a comparison of HG to HGERT conditions, where the oxidative damage was evaluated showing that the protein carbonyls decreased from 6.55 nM/mg protein with HG to 3.77 with […]=0.089). Protein carbonyls are end products of reactions between proteins and reactive oxygen species (ROS), formed during oxidative stress. […]

HUVEC cells [2] = assay: Lipid peroxidation: malondialdehyde (MDA) in HUVEC; assay type: cell-based, human; settings: 30 mM glucose, with or without 5 mM ERT
Description: The prepared cells were seeded in 6 well plates and T75 flasks and grown until 80% confluence. The medium was removed, and the cells were washed with Hank's Balanced Salt Solution (HBSS). […] The vehicle solution is the solvent for the test compounds, in this case being the medium without supplements. […] The cells described above were also incubated for 24 hours with a 7 mM, normal glucose (NG) solution or in some instances, with a 15 mM, intermediary glucose (IG) solution. See, for example, FIG. 6. Subsequently, the cells were incubated for 24 hours. The same protocol was used for incubation with Nε-(carboxymethyl)lysine (CML, final concentration 1 micromolar) and 1,3-morpholino sidnonimine (SIN-1, final concentration 0.5 mM).

erythrocytes [3] = assay: Radical-induced hemolysis of erythrocytes; assay type: cell-based; settings: erythrocytes exposed to hyperglycemic conditions, 24 h incubation
HUVEC cells [4] = assay: Eicosanoids in HUVEC pellets and supernatants; assay type: cell-based, human
Description: Another parameter evaluated in the targeted assays included the study of 23 eicosanoids in a comparison of HG versus HGERT conditions.
In studying the supernatants, 14,15-dihydroxy-5Z,8Z,11Z-eicosatrienoate (14,15-DiHETrE), produced from arachidonic acid via Cyp 2C and 2J to form epoxyeicosatrienoic acids (EETs), then converted to DiHETrE via sEH, decreased from 0.0085 to 0.0040 nM (p<0.05). This decrease in 14,15-DiHETrE is consistent with high glucose suppression of sEH, and should result in increased EETs, which would produce vasodilation. EETs were not, however, observed to be increased.

[5] = tested on: Beta cells (Cell line: HIT-T15); assay: HIT-T15 beta cell viability (trypan blue, Countess); assay type: cell-based; settings: 6, 15 or 30 mM glucose 24 hours, with or without 5 mM ERT
Description: Beta cells (Cell line: HIT-T15) were obtained from supplier ATCC. The cells were seeded in 24 well plate (300,000 cells/well). After overnight attaching, the medium was removed and the cells were washed with HBSS. […] After 1 hour incubation, glucose solution was added to a final concentration of 6, 15, or 30 mM in the wells. Subsequently, the cells were incubated for 24 hours. After incubation, all cell material including medium and HBSS was collected and centrifuged (5 minutes, 500×g). The supernatant was removed and the cells were resuspended in 500 μl HBSS. The cell suspensions were diluted 1:1 in 0.4% trypan blue dye and loaded in a Countess Chamber. The cells were counted using the Countess cell counter, which calculated the viability (function and activity) of the cells.

Human 1.1E7 beta cells = assay: 1.1E7 beta cell viability (trypan blue, Countess); assay type: cell-based; settings: 10, 30, 45 mM glucose, with or without 5 mM ERT
Description: (§1) Cell culture: Human 1.1E7 beta cells were cultured in RPMI 1640 medium containing 10% fetal calf serum, 2 mM L-Glutamine and 1% penicillin/streptomycin. Cells were maintained at 37° C. in a 5% CO2 atmosphere.
Viability: Cells were seeded in a 24 well plate. After overnight attaching, the medium was removed and cells were washed with HBSS. […] After 1 hour incubation a vehicle or glucose solution was added to a final concentration of 10, 30 or 45 mM in the wells. Subsequently, cells were incubated for 24 hours, 48 hours, 6 days, and 7 days. After incubation, all cell material including medium and HBSS was collected and centrifuged (5 minutes, 500×g). Supernatant was removed and cells were resuspended in 100 μl HBSS. Cell suspensions were diluted 1:1 in 0.4% trypan blue dye and loaded in a Countess Chamber. Cells were counted using the Invitrogen Countess® automated cell counter (Life Technologies Europe BV, Bleiswijk, the Netherlands).

7B2, PC1/3, PC2 = assay: RT-PCR gene expression of insulin production related genes in 1.1E7 cells; assay type: cell-based, human; settings: 1.1E7 cells, 10, 30, 45 mM glucose, 24 hours or 7 days, 5 mM ERT
Description: as §1
Gene expression analysis: RNA was isolated from Qiazol suspended cells according to the manufacturer's protocol and quantified spectrophotometrically. Reverse transcription reaction was performed using 500 ng of RNA, which was reverse-transcribed into cDNA using iScript cDNA synthesis kit. Next, real time PCR was performed with a BioRad MyiQ iCycler Single Color RT-PCR detection system using Sensimix™Plus SYBR and Fluorescein, 5 μl diluted (10×) cDNA, and 0.3 μM primers in a total volume of 25 μl. PCR was conducted as follows: denaturation at 95° C. for 10 minutes, followed by 40 cycles of 95° C. for 15 seconds and 60° C. for 45 seconds. After PCR a melt curve (60-95° C.) was produced for product identification and purity. Actin was included as internal control. Data were analyzed using the MyIQ software system (Bio-Rad Laboratories BV, Veenendaal, the Netherlands) and were expressed as relative gene expression (fold change) using the 2^ΔΔCt method.
PC1/3 and PC2 are proprotein or prohormone covertases. […] 7B2 is a small neuroendocrine protein that is required for the production of active prohormone convertase 2 (PC2)

erythrocytes [6] = settings: in vitro model of radical-induced hemolysis; cited from earlier work

## OC[C@@H](O)[C@@H](O)CO [ERT, meso-1,2,3,4-tetrahydroxybutane]
HUVEC cells [1]
  protein carbonyls: 3.77 nM/mg protein
HUVEC cells [2]
  malondialdehyde (MDA), end product of lipid peroxidation: Neither the exposure of the HUVEC cells to 5 mM ERT and 30 mM glucose (HGERT) nor to HG aloneaffected
Erythrocytes [3]
  radical-induced hemolysis: able to inhibit radical-induced hemolysis
HUVEC cells [4]; HG vs HGERT
  14,15-DiHETrE in supernatants: 4 pM
  TXB2: 1.20
HUVEC cells [4]; HGERT vs HG
  12-HETE in pellets: decreasing 12-HETE levels
[5]
  viability (function and activity) of HIT-T15 cells: attenuated this decrease significantly
Human 1.1E7 beta cells; 6 and 7 days
  viability of 1.1E7 cells: entirely prevented this decrease in beta cell viability
Human 1.1E7 beta cells; 24 and 48 hours
  viability of 1.1E7 cells: did not have any impact on this maintained viability
7B2, PC1/3, PC2
  gene expression of 7B2, PC1/3 and PC2: improved the expression of genes involved in the conversion of (pre)proinsulin to insulin
Erythrocytes [6]
  onset of oxidative damage, ABTS-induced hemolysis: able to delay the onset of oxidative damage
